According to patent publication US11773391B2, “Therapeutic and diagnostic target for SARS-CoV-2 and COVID-19” (priority 2020, dated 2023):
“Also recorded” adds a separate entry of the source.

Test system: NCOA7
Assay type: cell-based, human
Conditions: ECs, FIGS. 3A-3B

`N#CCNC(=O)c1ccc(-c2ccnc(Nc3ccc(N4CCOCC4)cc3)n2)cc1` [momelotinib, Momelotinib] was tested, and the “NCOA7 expression (IL-1β-mediated upregulation of NCOA7)” value was “abrogated the IL-1β-mediated upregulation of NCOA7; also recorded: attenuates NCOA7 expression”.
